Assay results taken from US5877210A, “Phosphotyrosine phosphatase inhibitors or phosphotyrosine kinase activators for controlling cellular proliferation” (priority 1995, dated 1999).
Entries after “also recorded” stand apart in the source; their conditions may differ. Read-outs that look alike come from different tables or passages of the source.

Columns and labels:
REH = experiment: Clonogenic assay in methylcellulose; type: cell-based; conditions: for colonies formed: seven days
Experimental: The selective cytotoxicity of BMLOV was examined in clonogenic assays. Cells were grown in methylcellulose media and the number of colonies formed after seven days of treatment with various doses of the drug were determined. The clonogenic assays were performed with six replicates for each treatment as described [F. M. Uckun et al., J. Exp. Med. 163:347-368 (1986); F. M. Uckun & J. A. Ledbetter, Proc. Natl. Acad. Sci. USA 85:8603-8607 (1988)). The data is given plus/minus the standard error of the mean.
For assays of cellular proliferation, cells were grown five days in the presence of the indicated concentrations of BMLOV, pulsed 6 hr with [^3 H]-thymidine (New England Nuclear, Boston, Mass.), and counted in a liquid scintillation counter. Human peripheral blood lymphocytes (PBL) from normal volunteers were isolated from lymphocyte separation medium (Litton Bionetics, Kensington, Md.) by density gradient centrifugation. Monocytes were depleted from PBL by two rounds of plastic absorption for 30 minutes at 37° C. B cells were enriched for by negative selection using complement plus monoclonal antibodies to CD2, CD3, CD4, and CD8 for complement depletion. Clonogenic assays of colony formation in methylcellulose medium were performed as previously described (F. M. Uckun et al. (1992), supra).

[1] = system: PHA-induced T cell blasts; experiment: Ca2+ signaling in PHA T cell blasts; type: cell-based, human
Experimental: Ca^2+ responses were measured using indo-1 (Molecular Probes, Eugene, Oreg.) and a model 50 HH/2150 flow cytometer (Ortho, Westwood, Mass.) as previously described (P. S. Rabinovitch et al., J. Immunol. 137:952-961 (1986)). The histograms were analyzed by programs (Cicero, Cytomation Inc., Ft. Collins, Colo.) that calculate the mean indo-1 violet/blue fluorescence ratio versus time. There are 100 data points on the X (time) axis for all flow cytometric data.
In the experiments shown in FIG. 25, human PHA-induced T cell blasts were treated overnight with the indicated concentrations of BMLOV. In Panel A, the baseline level of intracellular free Ca^2+ ([Ca^2+ ]i) was established for 1 min, and then the cells were treated with biotinylated anti-CD3 mAb (G19-4). After 5 min avidin was added (gap in the trace) to cross-link the antibody. In Panel B, assays were performed as in Panel A, but in the presence of 5 mM EGTA. […] In the experiments shown in FIG. 26, cells were treated 16 h with BMLOV and then stimulated with anti-CD3 mAb G19-4 for 5 min. Cells were then washed and resuspended in fresh media at equal concentrations of BMLOV at 37° C. Cells were then harvested and lysed at times following the initiation of CD3 stimulation as indicated. Antibody binding in immunoblots was detected by ECL.

PTP1B = biological target: T1, PTP1B (Homo sapiens, UniProt P18031); experiment: Phosphotyrosine phosphatase PTP1B inhibition; type: biochemical
T1 construct: purchased Upstate Biotechnology, Lake Placid, N.Y
T1 sequence (P18031 1-435): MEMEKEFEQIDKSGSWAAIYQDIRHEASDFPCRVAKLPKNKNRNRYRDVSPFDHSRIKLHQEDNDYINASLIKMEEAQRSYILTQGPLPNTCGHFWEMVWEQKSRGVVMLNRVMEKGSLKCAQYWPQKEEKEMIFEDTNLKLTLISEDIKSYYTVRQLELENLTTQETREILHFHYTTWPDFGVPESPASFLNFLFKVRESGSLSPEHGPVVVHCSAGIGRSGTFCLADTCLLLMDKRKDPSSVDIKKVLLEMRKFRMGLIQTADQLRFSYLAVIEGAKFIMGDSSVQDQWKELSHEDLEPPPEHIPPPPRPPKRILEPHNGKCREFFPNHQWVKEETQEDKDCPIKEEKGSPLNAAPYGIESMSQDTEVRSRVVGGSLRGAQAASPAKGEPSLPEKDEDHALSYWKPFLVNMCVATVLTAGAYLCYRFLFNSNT

[2] = system: murine B cell lymphoma A20 cells; experiment: Anti-phosphotyrosine immunoblot; type: cell-based; conditions: 16 hr
H3347 carcinoma cells = experiment: Anti-phosphotyrosine immunoblot; type: cell-based, human
Lyn = experiment: Src-family kinase activity from treated Ramos cells; type: cell-based, human; conditions: Ramos cells treated with BMLOV for 15 hours
Experimental: (§1) Treatment of Ramos cells with BMLOV for 15 hours inhibited the activity of the Src kinases Lyn and Fyn from the cells by approximately 50%.

Fyn = experiment: as above; type: cell-based, human; conditions: Ramos cells treated with BMLOV for 15 hours
Experimental: as §1

[3] = system: normal peripheral B cells; conditions: human, 120 h, 25 µM
Experimental: Cell death was measured by staining cells with propidium iodine followed by flow cytometry (EPICS C, Coulter) as previously described (N. K. Damle et al. (1993), supra; Y. Liu & C. A. J. Janeway, "Interferon Gamma Plays a Critical Role in Induced Cell Death of Effector T Cells: A Possible Third Mechanism of Self-Tolerance," J. Exp. Med. 172:1735-1739 (1990)). Flow cytometric data on forward scatter and red fluorescence arising from propidium iodine binding to cellular DNA was collected for 5,000 cells and analyzed by the Quadstat Program (N. K. Damle, (1993), supra). The membranes of dead cells are permeable to propidium iodine (Y. Liu & C. A. Janeway, (1990), supra), but cells undergoing the process of apoptosis can shrink in size while temporarily maintaining plasma membrane integrity (J. J. Cohen et al., "Apoptosis and Programmed Cell Death and Immunity," Annu. Rev. Immunol. 10:267-293 (1992)). […] Only cells displaying normal size and resistance to staining by propidium iodide are considered viable cells and are found in the lower left quadrant (M. K. Damle et al. (1993), supra). The percentage of cells in each quadrant was calculated by the Quadstat program. […]
To provide a final measure of cell death, propidium iodide staining of cells was used. […] Viability was measured by staining with propidium iodide followed by flow cytometric analysis as described above. […]

Ramos B cells = experiment: Viability by propidium iodide staining and flow cytometry; type: cell-based, human; conditions: 25 μM BMLOV, 4 days (FIG. 15B) or 5 d (FIG. 30)
Text: The extent to which the T cells were being killed by BMLOV treatment relative to the Ramos B cells was therefore examined. […] The percentage of cells in each quadrant is indicated. The lower right quadrant contains the viable cells.

[4] = system: L1210 murine T cell leukemia cells; experiment: Apoptosis: DNA fragmentation on agarose gel; type: cell-based; conditions: pV(phen), FIG. 18
Experimental: For these experiments, cell samples (2×10^6 cells) were centrifuged at 200× g, the media removed by aspiration and the cell pellets stored at -70° C. until processing. Cell pellets were resuspended in 300 μl digestion buffer (100 mM NaCl, 10 mM Tris-HCl, pH 8.0, 25 mM EDTA, 0.5% SDS, 0.1 mg/ml protease K) and incubated for 12 hours at 50° C. DNase-free ribonuclease (5 μg) in 200 μl TE buffer (10 mM Tris-HCl, pH 7.5, 1 mM EDTA) was added to each sample followed by incubation for 2 hours at 37° C. DNA was then extracted once with phenol:chloroform, once with chloroform and then precipitated with 0.5 volumes of ammonium acetate and 2 volumes of ethanol at -70° C. for 12 hours. The precipitated DNA was resuspended in 200 μl TE buffer and quantitated by absorbance at 260 nanometers. The DNA (15 μg) was applied to a 1.3% agarose gel in TBE buffer (89 mM Tris base, 89 mM boric acid, 2 mM EDTA) resolved at 20 mA constant current and the DNA was visualized by staining with ethidium bromide. Fragmented DNA due to apoptosis appeared as a ladder of bands on the gel.
L1210 murine T cell leukemia cells were treated with the indicated concentrations of pV(phen) for the indicated times and the DNA was examined by gel electrophoresis as in Example 3.

Structure (SMILES) | percentage of inhibition of clonogenic growth (REH; 1 μM BMLOV) | colonies formed (REH; 1 μM BMLOV) | percentage of inhibition of clonogenic growth (REH; 5 μM BMLOV) | colonies formed (REH; 5 μM BMLOV) | percentage of inhibition of clonogenic growth (REH; 10 μM BMLOV) | colonies formed (REH; 10 μM BMLOV) | Ca2+ signals from crosslinking CD3 alone or with CD2 and CD4 ([1]; 25-50 μM BMLOV) | basal calcium levels ([1]; 50 to 100 μM BMLOV, fifteen hours) | effect on CD28 Ca2+ signals ([1]; PHA T cell blasts) | Ca2+ signaling in T cells ([1]; anti-CD3 cross-linking, BMLOV overnight (25 μM elsewhere in the source)) | IC50 (PTP1B) | IC50 (PTP1B; Table 1, phosphorylated myelin basic protein substrate) | IC50 (PTP1B; Table 8) | induction of tyrosine phosphorylation [2] | induction of tyrosine phosphorylation (H3347 carcinoma cells) | inhibition of kinase activity (Lyn) | inhibition of kinase activity (Fyn) | viable cells [3] | killing by BMLOV, in words (Ramos B cells) | induction of apoptosis (DNA fragmentation) [4]
Cc1occc(=O)c1[O-].Cc1occc(=O)c1[O-].[O]=[V+2] [BMLOV, Bis(maltolato)oxovanadium (IV)] | 64.7% | 1810 ± 385 colonies per 10^4 cells | 98.6% | 71 ± 8 colonies per 10^4 cells | 99.8% | 8 ± 1 colonies per 10^4 cells | prolong Ca^2+ signals | markedly enhance basal calcium levels | marked inhibition | detectably stimulated Ca^2+ signaling; also recorded: increased and prolonged | ~0.025 µM | 0.026 µM | 0.026 µM | highly responsive | weakly induce tyrosine phosphorylation | approximately 50% | approximately 50% | 27% | substantially more sensitive to killing; also recorded: completely killed | 
[Na+].[O]=[V-]12([O][O]1)[O][O]2.c1cnc2c(c1)ccc1cccnc12 [pV(phen), sodium (1,10-phenanthroline) oxodiperoxovanadium (V)] |  |  |  |  |  |  |  |  |  |  |  |  |  |  |  |  |  |  |  | fragmentation of DNA demonstrates apoptosis
